Entries after “also recorded” stand apart in the source; their conditions may differ.
How the values were obtained:
[1] = system: behaviors of compound-treated mice; assay: SmartCube behavioral signature, similarity to atypical antipsychotics; assay type: in vivo; details: for discrimination rate vs Clozapine / discrimination rate vs Olanzapine / discrimination rate vs Risperidone: SmartCube, i.p. 15 minutes before test, 0.70 or lower = similar; for SmartCube signature: i.p., mice, classification by similarity to drug classes
From the text: In addition to the reversal of L-687,414 induced hyperlocomotion experiment as described above, some compounds of the present invention have been tested in SmartCube®, an automated system in which the behaviors of compound-treated mice in response to multiple challenges are captured by digital video and analyzed with computer algorithms (Roberds et al., Frontiers in Neuroscience, 2011, Vol. 5, Art. 103, 1-4). In this way, the neuro-pharmacological effects of a test compound can be predicted by similarity to major classes of compounds, such as antipsychotics, anxiolytics and antidepressants.
SmartCube® was used to compare the behavioral signature of a test compound to a database of behavioral signatures obtained from a large set of clinically approved reference drugs, grouped per indications. In this way, the neuro-pharmacological effects of a test compound can be predicted by similarity to major classes of compounds, such as antipsychotics, anxiolytics and antidepressants. This approach is ideally suited to screen collections of existing drugs or drug candidates with previously unknown neuropharmacology, which could expedite the development of new and unexpected treatments for psychiatric disorders.
Some compounds of the present invention were injected i.p. at different doses 15 minutes before the test. At least 8 mice were used in each treatment group. Digital videos of the subjects were processed with computer vision algorithms to extract over 2000 dependent measures including frequency and duration of many different behavioral states. The results of the classifications are presented as bar charts for each dose (mg/kg), the Y-axis indicates the relative probability that the test compound will show efficacy in the specific CNS indication.
For comparison, the behavioral signature of the atypical antipsychotic risperidone is shown in FIG. 3 (for behavioral signatures of further atypical antipsychotic, e.g. clozapine, olanzapine, see also Roberds et al., Frontiers in Neuroscience, 2011, Vol. 5, Art. 103, 1-4). Compounds of the present invention show similar signatures to those of atypical antipsychotics. An independent analysis was performed on the unclassified data to determine the similarity of the example compounds to active doses of known atypical antipsychotics. For this analysis, we use discrimination rate as the measure of separability between the two drugs, i.e. one drug's “distinguishability” from another. A rate equal to 50% (or 0.5) corresponds to zero distinguishability. […] In most cases, the example compounds show a similarity to risperidone, clozapine and olanzapine with a discrimination rate of ≦0.70.

[2] = system: L-687,414-induced hyperlocomotion; assay: L-687,414-induced hyperlocomotion (Digiscan locomotor activity); assay type: in vivo, mouse; details: mice; for ID50 po: p.o. 15 min before s.c. 50 mg/kg L-687,414, dose producing 50% inhibition of hyperlocomotion; for Inhibition, ip: dose ip 30, at the same time as s.c. 50 mg/kg L-687,414, % inhibition of horizontal activity
Method: The authors described that hyperlocomotion induced by L-687,414 was inhibited by a series of known antipsychotic drugs. […] These findings predict antipsychotic activity for the present compounds, making them useful for the treatment of schizophrenia and other disorders as described above.
The described compounds of formula I and I-1 reduce L-687,414-induced hyperlocomotion. This was assessed by using a computerized Digiscan 16 Animal Activity Monitoring System (Omnitech Electronics, Columbus, Ohio) to quantify locomotor activity. Animals were kept under a 12 h light/dark cycle and experiments were performed during the light period. Each activity monitoring chamber consisted of a Plexiglas box (41×41×28 cm; W×L×H) with sawdust bedding on the floor surrounded by invisible horizontal and vertical infrared sensor beams. The test boxes were divided by a Plexiglas cross providing each mouse with 20×20 cm of moving space. Cages were connected to a Digiscan Analyzer linked to a computer that constantly collected the beam status information. Records of photocell beam interruptions for individual animals were taken every 5 min over the duration of the experimental session and the sum of the first 6 periods was used as the final parameter. Compounds were administered either p.o. 15 min before a s.c. injection of 50 mg/kg of L-687,414, or i.p. at the same time as a s.c. injection of 50 mg/kg of L-687,414. Mice were then transferred from their home cage to the recording chambers for a 15-min habituation phase allowing free exploration of the new environment. Horizontal activity was then recorded for a 30-min time period. The % inhibition of L-687,414-induced hyperlocomotion was calculated according to the equation: ((Veh+L-687,414 horizontal activity−drug+L-687,414 horizontal activity)/Veh+L-687,414 horizontal activity)×100
ID50 values, defined as doses of each compound producing 50% inhibition of L-687,414-induced hyperlocomotion, were calculated by linear regression analysis of a dose-response data using an Excel-based computer-fitting program.
As data was not presupposed to be normally distributed, groups treated with test compounds were statistically compared with the control (vehicle-treated) group using one-tailed Mann Whitney U tests. In statistics, the Mann-Whitney U test (also called the Mann-Whitney-Wilcoxon (MWW) or Wilcoxon rank-sum test) is a non-parametric statistical hypothesis test for assessing whether one of two samples of independent observations tends to have larger values than the other. It is one of the most well-known non-parametric significance tests. […] P values given in table 1 are one-tailed since only decreases in locomotion were expected and tested for (Mann, H. B., Whitney, D. R. (1947), “On a Test of Whether one of Two Random Variables is Stochastically Larger than the Other”, Annals of Mathematical Statistics, 18 (1), 50-60).

| Structure (SMILES) | Inhibition, ip [2] [%] | other results |
| --- | --- | --- |
| CN1C(=O)C(C)(C)c2ccc(NC(=O)c3ccncc3F)cc21 [Example 29, 3-Fluoro-N-(1,3,3-trimethyl-2-oxoindolin-6-yl)isonicotinamide] |  | discrimination rate vs Clozapine [1]: 0.63; discrimination rate vs Olanzapine [1]: 0.58; discrimination rate vs Risperidone [1]: 0.56; SmartCube signature [1]: similarity to atypical antipsychotics; also recorded: profile similar to that of atypical antipsychotics; ID50 po [2]: 1.08 mg/kg |
| CC1(C)C(=O)N(C2CC2)c2cc(NC(=O)c3ccncc3Cl)ccc21 [Example 30, 3-Chloro-N-(1-cyclopropyl-3,3-dimethyl-2-oxoindolin-6-yl)isonicotinamide] |  | discrimination rate vs Clozapine [1]: 0.68; discrimination rate vs Olanzapine [1]: 0.67; discrimination rate vs Risperidone [1]: 0.72; SmartCube signature [1]: similarity to atypical antipsychotics; also recorded: profile similar to that of atypical antipsychotics; ID50 po [2]: 0.97 mg/kg |
| O=C(Nc1ccc2c(c1)N(C1CC1)C(=O)C21CC1)c1ccncc1F [Example 57, N-(1′-Cyclopropyl-2′-oxospiro[cyclopropane-1,3′-indoline]-6′-yl)-3-fluoroisonicotinamide] | 60.5 |  |
| CC1(C)C(=O)N(C2COC2)c2cc(NC(=O)c3ccncc3F)ccc21 [Example 59] | 88.6 |  |
| Cc1cc(C(=O)Nc2ccc3c(c2)N(C2CC2)C(=O)C32CC2)ccn1 [Example 60, N-(1′-Cyclopropyl-2′-oxospiro[cyclopropane-1,3′-indoline]-6′-yl)-2-methylisonicotinamide] | 63.2 |  |
| CC1(C)C(=O)N(C2COC2)c2cc(NC(=O)c3ccncc3Cl)ccc21 [Example 62, 3-Chloro-N-(3,3-dimethyl-1-(oxetan-3-yl)-2-oxoindolin-6-yl)isonicotinamide] | 61.7 |  |
| CC1(C)C(=O)N(C2COC2)c2cc(NC(=O)c3cccnc3)ccc21 [Example 64, N-(3,3-Dimethyl-1-(oxetan-3-yl)-2-oxoindolin-6-yl)nicotinamide] | 65.9 |  |
| CC1(C)C(=O)N(CCCOC2CC2)c2cc(NC(=O)c3ccncc3F)ccc21 [Example 65, N-(1-(3-Cyclopropoxypropyl)-3,3-dimethyl-2-oxoindolin-6-yl)-3-fluoroisonicotinamide] | 91.1 |  |
| CC1(C)C(=O)N(CCO)c2cc(NC(=O)c3ccncc3F)ccc21 [Example 68, 3-Fluoro-N-(1-(2-hydroxyethyl)-3,3-dimethyl-2-oxoindolin-6-yl)isonicotinamide] | 89.1 |  |
| CC1(C)C(=O)N(CCCO)c2cc(NC(=O)c3ccncc3F)ccc21 [Example 69, 3-Fluoro-N-(1-(3-hydroxypropyl)-3,3-dimethyl-2-oxoindolin-6-yl)isonicotinamide] | 82.4 |  |
| CC1(C)C(=O)Nc2cc(NC(=O)c3ccncc3F)ccc21 [Example 72, N-(3,3-Dimethyl-2-oxoindolin-6-yl)-3-fluoroisonicotinamide] |  | ID50 po [2]: 2.22 mg/kg |
| CC1(C)C(=O)N(CCCO)c2cc(NC(=O)c3ccncc3Cl)ccc21 [Example 73, 3-Chloro-N-(1-(3-hydroxypropyl)-3,3-dimethyl-2-oxoindolin-6-yl)isonicotinamide] | 51.2 |  |
| CC1(C)C(=O)N(CC(F)(F)F)c2cc(NC(=O)c3ccncc3F)ccc21 [Example 74, N-(3,3-Dimethyl-2-oxo-1-(2,2,2-trifluoroethyl)indolin-6-yl)-3-fluoroisonicotinamide] | 76.6 |  |
| CC1(C)C(=O)N(C2CC2)c2cc(NC(=O)c3ccncc3)ncc21 [Example 79, N-(1-Cyclopropyl-3,3-dimethyl-2-oxo-2,3-dihydro-1H-pyrrolo[3,2-c]pyridin-6-yl)isonicotinamide] |  | ID50 po [2]: 0.94 mg/kg |
| Cc1cc(C(=O)Nc2cc3c(cn2)C(C)(C)C(=O)N3C2CC2)ccn1 [Example 81, N-(1-Cyclopropyl-3,3-dimethyl-2-oxo-2,3-dihydro-1H-pyrrolo[3,2-c]pyridin-6-yl)-2-methylisonicotinamide] | 53.1 |  |
| CC1(C)C(=O)N(C2CC2)c2cc(NC(=O)c3ccnc(Cl)c3)ncc21 [Example 83, 2-Chloro-N-(1-cyclopropyl-3,3-dimethyl-2-oxo-2,3-dihydro-1H-pyrrolo[3,2-c]pyridin-6-yl)isonicotinamide] | 79.6 |  |
| CC1(C)C(=O)N(C2CC2)c2cc(NC(=O)c3ccno3)ncc21 [Example 85, N-(1-Cyclopropyl-3,3-dimethyl-2-oxo-2,3-dihydro-1H-pyrrolo[3,2-c]pyridin-6-yl)isoxazole-5-carboxamide] | 74.9 |  |
| Cn1nccc1C(=O)Nc1cc2c(cn1)C(C)(C)C(=O)N2C1CC1 [Example 86, N-(1-Cyclopropyl-3,3-dimethyl-2-oxo-2,3-dihydro-1H-pyrrolo[3,2-c]pyridin-6-yl)-1-methyl-1H-pyrazole-5-carboxamide] | 69 |  |
| COc1ncc(C(=O)Nc2cc3c(cn2)C(C)(C)C(=O)N3C2CC2)cn1 [Example 88, N-(1-Cyclopropyl-3,3-dimethyl-2-oxo-2,3-dihydro-1H-pyrrolo[3,2-c]pyridin-6-yl)-2-methoxypyrimidine-5-carboxamide] |  | ID50 po [2]: 6.11 mg/kg |

From patent publication US9221816B2, “2-oxo-2,3-dihydro-indoles for the treatment of CNS disorders” (Hoffmann-La Roche Inc., priority 2012, dated 2015)
